Test results published in US20260240826A1, “COMPOSITIONS FOR PD-L1 INHIBITION AND METHODS OF USE THEREOF” (ARIZONA BOARD OF REGENTS ON BEHALF OF THE UNIVERSITY OF …, priority 2023, published 2026).

Columns and labels:
PD-L1 [1] = assay: PD-L1 immunohistochemistry of SKH-1 mouse skin; format: in vivo; settings: topical 8 mM pre/post; 24 hr post SSL
Protocol: (§1) UVB exposure was performed on AP-1 luciferase reporter mice on the SKH-1 genetic background at a dose of 2.75 kJ/m2 using FS40 bulbs (Q-Lab Corporation) as described before with the modification that mice were imaged 24 hr post UVB exposure using whole body bioluminescence instead of 48 hr post UVB using ear punches. SSL irradiation of SKH-1 mice (Charles River Laboratories, strain code 477) at a dose of 90 kJ/m2 UVA/6 kJ/m2 UVB was performed using UVA-340 bulbs (Q-Lab Corporation) as described before.
PD-L1: IHC staining for PD-L1 in mouse skins was performed using the NBP1-43262 antibody (Novus). Epidermal PD-L1 expression is shown as percent staining determined by ImageJ (NIH, open source) quantification using color deconvolution of the brown stain with a uniform threshold between all samples. Each skin sample (n=3, 20× field) was used to measure at least 3 fields per specimen with the exclusion of hair follicles, if present.
Mouse IHC data were analyzed using Kruskal-Wallis non-parametric data analysis (GraphPad Prism 10.0 software). IHC images shown are magnified according to the 100 μm scale bar contained in the respective panel as specified throughout the figure legends.

PD-L1 [2] = assay: PD-L1 mRNA in SKH-1 mouse skin by RT-qPCR; format: in vivo; settings: topical 8 mM; 24 hr after SSL
Protocol: as §1
Total RNA was isolated from SSL-treated mouse skin using the Qiagen RNeasy Mini Kit (Qiagen) according to the manufacturer's protocol. RNA integrity was checked by the RNA 6000 Nano chip kit using Agilent 2100 Bioanalyzer (Agilent Technologies). […] Then, 10 ng of cDNA was used for amplification of target genes by quantitative PCR using the following conditions: 95° C. for 10 min followed by 95° C. for 15 sec and 60° C. for 1 min for a total of 40 cycles performed in the ABI7500 Real-Time PCR System (Applied Biosystems). […] After amplification plots were generated, the Ct values (cycle number at which fluorescence reaches threshold) were recorded and quantified using the comparative (ΔΔCt) Ct method as described in the ABI Prism 7500 sequence detection system user guide. Statistical significance was calculated employing the Student's two-tailed t-test.

Structure (SMILES): COc1nc(OCc2cccc(-c3ccccc3)c2C)ccc1CNCCNC(C)=O [BMS-202]
- epidermal PD-L1 staining (IHC) (PD-L1 [1]): pronounced inhibition
- PD-L1 mRNA expression in full thickness mouse skin (RT-qPCR) (PD-L1 [2]): inhibition
